These results are taken from publication PMC4741798, “Imaging of carbonic anhydrase IX with an ^111In-labeled dual-motif inhibitor” (Oncotarget, 2015).

Each structure is given as a SMILES string. Entries after “also recorded” stand apart in the source; their conditions may differ.

The subject of assay [1] is CAIX-negative BxPC3 cells. The assay can be described thus: FACS analysis of cell binding. It counts as cell-based. The conditions noted are these: 30 min room temperature. As to the method:
(§1) CAIX-positive SK-RC-52 and CAIX-negative BxPC3 cells were maintained in RPMI 1640 media supplemented with 10% FBS and 1 × penicillin-streptomycin in a 37°C humidified incubator. Cells were detached from the flask with trypsin and reconstituted in RPMI 1640 media supplemented with 1% FBS at a density of 1 × 10^6 cells per mL. FITC-labeled 8 was added to the cells at the indicated concentration and incubated at room temperature for 30 min. Cells were washed twice with the same media for staining and analyzed using the FACSCalibur (BD Bioscience, San Jose, CA) instrument.
A general note: Flow cytometry measures light scatter and fluorescence of single cells or particles in a stream.

For assay [2], the system named is CAIX-expressing SK-RC-52 cells. Kind of assay: FACS analysis of cell binding. The class given is cell-based. As to the method:
as §1

Another assay has as its target CAIX. Also on record: method as in PMID 25698334. To be noted: reported value; cited from earlier work.
The target of another assay is T1, CAXII (Homo sapiens, UniProt O43570).
T1 construct: purchased R&D Systems
T1 sequence (O43570 25-354): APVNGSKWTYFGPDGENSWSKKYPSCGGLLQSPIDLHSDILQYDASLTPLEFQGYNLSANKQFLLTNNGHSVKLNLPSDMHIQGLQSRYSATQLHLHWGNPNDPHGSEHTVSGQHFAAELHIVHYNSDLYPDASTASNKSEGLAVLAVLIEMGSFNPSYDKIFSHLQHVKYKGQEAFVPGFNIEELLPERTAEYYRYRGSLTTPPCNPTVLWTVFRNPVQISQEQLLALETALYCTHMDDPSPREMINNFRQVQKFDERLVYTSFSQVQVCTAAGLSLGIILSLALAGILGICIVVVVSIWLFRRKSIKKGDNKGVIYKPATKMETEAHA
Kind of assay: Fluorescence polarization for affinity comparison (saturation binding). To be noted: Fig. 4C. As to the method: (§2) Figure 4 Compound 8 had higher binding affinity to CAIX compared to CAII and CAXII Saturation binding curves for CAII, CAIX, and CAXII were generated. 5 nM of compound 8 was titrated by increasing concentrations of CAII, CAIX, and CAXII and the resultant fluorescence polarization (mP) was measured, with EC50 values calculated. […] The target in front of each value (CAII, CAIX, CAXII) is taken from the x-axis title of that panel.
(§3) Human recombinant CAII, CAIX, and CAXII were purchased from R&D systems (Minneapolis, MN). 5 nM of FITC-labeled 8 were mixed with serially diluted (from 1 μM to 19 fM) isoforms of the carbonic anhydrases in PBS within 384 well Small Volume™ LoBase Microplates (Greiner Bio-One, Frickenhausen Germany). The mixtures were incubated at room temperature for 1 h. Fluorescence polarization was measured using a Safire2™ plate reader (Tecan, Morrisville, NC), with 475 nm excitation and 530 nm emission wavelengths.
In general terms: In fluorescence polarisation assays a small probe gives low polarisation when free and higher when bound to something large.

The target in another assay is T2, CAII (Homo sapiens, UniProt P00918).
T2 construct: purchased R&D Systems
The assay is described as above. The conditions noted are these: Fig. 4A. As to the method:
as §2, §3

Assay [3] relates to CAIX-expressing SK-RC-52 cells. Kind of assay: Fluorescence microscopic analyses of labeled cells. It counts as cell-based. The conditions noted are these: 100 nM of 8 for 1 h; BxPC3 as negative cells. As for the experimental part:
CAIX-positive SK-RC-52 and CAIX-negative BxPC3 cells were seeded on to 8-well chamber glass slides (Lab-Tek®IICC^2™, Nunc, Rochester NY) and incubated in RPMI 1640 media supplemented with 10% FBS and 1 × penicillin-streptomycin in a 37°C humidified incubator for 48 h. Cells were stained with 100 nM of FITC-labeled 8 for 1 h in the same growth media followed by washing twice with the same media. Cells were fixed with 10% formaldehyde (Sigma-Aldrich, Saint Louis, MO) and washed three times with PBS. Cells were treated with 20 nM DAPI (4′,6-diamidino-2-phenylindole) in PBS. The chambers were removed and the Vectashield mounting solution (Vector Laboratories, Inc., Burlingame, CA) was added to the sample. Fluorescence microscopic images were taken using the Nikon Eclipse 80i epifluorescence microscope (Nikon Instruments Inc., Melville, NY) and the images were processed by the Element software (Nikon Instruments Inc.).

As a reminder, the Kd is the concentration at which binding is half-saturated.

Take `CC(CCC(=O)N[C@@H](CC(=O)N[C@@H](CC(=O)N[C@@H](CCCCn1cc(CCCC(=O)Nc2nnc(S(N)(=O)=O)s2)nn1)C(=O)NCCOCCOCCNC(=S)Nc1ccc(-c2c3ccc(=O)cc-3oc3cc(O)ccc23)c(C(=O)O)c1)C(=O)O)C(=O)O)(c1ccc(O)cc1)c1ccc(O)cc1` [Compound 8]: the “binding to cells by FACS (in words)” value in assay [1] is given as “not to CAIX-negative BxPC3 cells”; in assay [2] (30 min room temperature), “bound specifically”. Further, the “lowest concentration with significant binding to cells (FACS)” value in assay [2] was determined as 10 nM. In addition, the Kd on CAIX was 0.2 nM. In addition, at CAXII, the “affinity to CAXII relative to CAIX (in words)” value was “about three-fold lower affinity”. Also, the “binding affinity to cytosolic CAII (in words)” value on CAII is recorded as “poor binding affinity”. For the same molecule, in assay [3], the “cell surface staining by fluorescence microscopy (in words)” value is reported as “Only SK-RC-52 cells were stained with 8 on the surface of the cells; also recorded: bound to the cell surface of SK-RC-52”.
